Results as given in patent publication US20240270741A1 (Cogent Biosciences, Inc., priority 2023, published 2024).

These compounds were tested against FGFR2 (Homo sapiens, UniProt P21802) (assay: FGFR wild type enzyme assay (HTRF KinEASE-TK), FGFR2). Details: Enz FGFR2 (nM), FGFR2 wild type enzyme assay.
Sequence of FGFR2 (P21802 399-821 limits assumed): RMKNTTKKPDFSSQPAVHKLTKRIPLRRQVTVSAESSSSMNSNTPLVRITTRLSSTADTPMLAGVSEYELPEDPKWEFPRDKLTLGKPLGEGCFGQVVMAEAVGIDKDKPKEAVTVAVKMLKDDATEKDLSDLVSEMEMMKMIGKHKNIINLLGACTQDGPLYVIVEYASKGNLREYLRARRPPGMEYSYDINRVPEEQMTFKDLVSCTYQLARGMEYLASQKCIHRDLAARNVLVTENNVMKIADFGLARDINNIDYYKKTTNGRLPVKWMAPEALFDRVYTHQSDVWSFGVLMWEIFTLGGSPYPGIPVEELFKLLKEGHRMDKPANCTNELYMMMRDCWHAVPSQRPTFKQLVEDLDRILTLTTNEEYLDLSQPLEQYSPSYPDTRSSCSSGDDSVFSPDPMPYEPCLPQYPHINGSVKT
With `COC(=O)N1CCC[C@H](n2ncc(-c3cc(Sc4ccc(F)cc4C#N)c4c(C#N)cnn4c3)c2C)C1` [Example 363, methyl (S)-3-(4-(3-cyano-4-((2-cyano-4-fluorophenyl)thio)pyrazolo [1,5-a]pyridin-6-yl)-5-methyl-1H-pyrazol-1-yl)piperidine-1-carboxylate] the IC50 was 2 nM. In the case of `COC(=O)N[C@]1(C)CC[C@H](n2ncc(-c3cc(Sc4ccc(F)cc4C#N)c4c(C#N)cnn4c3)c2C)CC1` [Example 364, methyl ((1s,4s)-4-(4-(3-cyano-4-((2-cyano-4-fluorophenyl)thio)pyrazolo [1,5-a]pyridin-6-yl)-5-methyl-1H-pyrazol-1-yl)-1-methylcyclohexyl)carba-mate], the IC50 is reported as 3 nM. For `COC(=O)N1[C@@H]2CC[C@H]1C[C@H](n1ncc(-c3cc(Sc4ccc(F)cc4C#N)c4c(C#N)cnn4c3)c1C)C2` [Example 365, methyl (1R,3s,5S)-3-(4-(3-cyano-4-((2-cyano-4-fluorophenyl)thio)pyrazolo [1,5-a]pyridin-6-yl)-5-methyl-1H-pyrazol-1-yl)-8-azabicyclo[3.2.1]octane-8-carboxylate], the IC50 was 2 nM. In the case of `Cc1c(-c2cc(Sc3ccc(F)cc3C#N)c3c(C#N)cnn3c2)cnn1[C@@H]1C[C@H]2CC[C@@H](C1)N2` [Example 366, 6-(1-((1R,3s,5S)-8-azabicyclo[3.2.1]octan-3-yl)-5-methyl-1H-pyrazol-4-yl)-4-((2-cyano-4-fluorophenyl)thio)pyrazolo [1,5-a]pyridine-3-carbonitrile], the IC50 is reported as 0.6 nM. In the case of `N#Cc1ccccc1Sc1cc(-c2cnn(C3CCS(=O)(=O)CC3)c2)cn2ncc(C#N)c12` [Example 367, 4-((2-cyanophenyl)thio)-6-(1-(1,1-dioxidotetrahydro-2H-thiopyran-4-yl)-1H-pyrazol-4-yl)pyrazolo[1,5-a]pyridine-3-carbonitrile], the IC50 is reported as 0.4 nM. `CC(=O)N[C@@H]1CC[C@@H](n2cc(-c3cc(Sc4ccccc4C#N)c4c(C#N)cnn4c3)cn2)C1` [Example 368, N-((1R,3R)-3-(4-(3-cyano-4-((2-cyanophenyl)thio)pyrazolo [1,5-a]pyridin-6-yl)-1H-pyrazol-1-yl)cyclopentyl)acetamide] gave an IC50 of 0.4 nM. `Cc1c(-c2cc(Sc3ccc(Cl)cc3C#N)c3c(C#N)cnn3c2)cnn1C1CCN(C)CC1` [Example 369, 4-((4-chloro-2-cyanophenyl)thio)-6-(5-methyl-1-(1-methylpiperidin-4-yl)-1H-pyrazol-4-yl)pyrazolo[1,5-a]pyridine-3-carbonitrile] gave an IC50 of 5 nM. In the case of `CN1CCC(n2ncc(-c3cc(Sc4ncccc4F)c4c(C#N)cnn4c3)c2C#N)CC1` [Example 370, 6-(5-cyano-1-(1-methylpiperidin-4-yl)-1H-pyrazol-4-yl)-4-((3-fluoropyridin-2-yl)thio)pyrazolo[1,5-a]pyridine-3-carbonitrile], the IC50 is reported as 35 nM. In the case of `Cc1cc(Sc2cc(-c3cnn(C4CCN(C)CC4)c3C)cn3ncc(C#N)c23)c(C#N)cc1F` [Example 371, 4-((2-cyano-4-fluoro-5-methylphenyl)thio)-6-(5-methyl-1-(1-methylpiperidin-4-yl)-1H-pyrazol-4-yl)pyrazolo[1,5-a]pyridine-3-carbonitrile], the IC50 is reported as 5 nM. `Cc1c(-c2cc(Sc3ccc(F)cc3C#N)c3c(C#N)cnn3c2)cnn1[C@@H]1C[C@H]2CC[C@@H](C1)N2C(=O)CO` [Example 372, 4-((2-cyano-4-fluorophenyl)thio)-6-(1-((1R,3s,5S)-8-(2-hydroxyacetyl)-8-azabicyclo[3.2.1]octan-3-yl)-5-methyl-1H-pyrazol-4-yl)pyrazolo[1,5-a]pyridine-3-carbonitrile] showed an IC50 of 1 nM. `CC(=O)N1[C@@H]2CC[C@H]1C[C@H](n1ncc(-c3cc(Sc4ccc(F)cc4C#N)c4c(C#N)cnn4c3)c1C)C2` [Example 373, 6-(1-((1R,3s,5S)-8-acetyl-8-azabicyclo[3.2.1]octan-3-yl)-5-methyl-1H-pyrazol-4-yl)-4-((2-cyano-4-fluorophenyl)thio)pyrazolo [1,5-a]pyridine-3-carbonitrile] gave an IC50 of 2 nM. `Cc1noc(Cn2cc(-c3cc(Sc4ccccc4C#N)c4c(C#N)cnn4c3)cn2)n1` [Example 374, 4-((2-cyanophenyl)thio)-6-(1-((3-methyl-1,2,4-oxadiazol-5-yl)methyl)-1H-pyrazol-4-yl)pyrazolo[1,5-a]pyridine-3-carbonitrile] was tested, and the IC50 was 1 nM. Work on `Cn1ccc(Cn2cc(-c3cc(Sc4ccccc4C#N)c4c(C#N)cnn4c3)cn2)n1` [Example 375, 4-((2-cyanophenyl)thio)-6-(1-((1-methyl-1H-pyrazol-3-yl)methyl)-1H-pyrazol-4-yl)pyrazolo[1,5-a]pyridine-3-carbonitrile] yielded an IC50 of 0.6 nM. Compound `Cc1c(-c2cc(Sc3ncc(Cl)cc3F)c3c(C#N)cnn3c2)cnn1C1CCN(C)CC1` [Example 376, 4-((5-chloro-3-fluoropyridin-2-yl)thio)-6-(5-methyl-1-(1-methylpiperidin-4-yl)-1H-pyrazol-4-yl)pyrazolo[1,5-a]pryidine-3-carbonitrile] has an IC50 of 5.5 nM. In the case of `Cc1cnc(Sc2cc(-c3cnn(C4CCN(C)CC4)c3C)cn3ncc(C#N)c23)c(F)c1` [Example 377, 4-((3-fluoro-5-methylpyridin-2-yl)thio)-6-(5-methyl-1-(1-methylpiperidin-4-yl)-1H-pyrazol-4-yl)pyrazolo[1,5-a]pyridine-3-carbonitrile], the IC50 is reported as 11 nM. With `Cc1ccc(Sc2cc(-c3cnn(C4CCN(C)CC4)c3C)cn3ncc(C#N)c23)c(C#N)c1` [Example 378, 4-((2-cyano-4-methylphenyl)thio)-6-(5-methyl-1-(1-methylpiperidin-4-yl)-1H-pyrazol-4-yl)pyrazolo[1,5-a]pyridine-3-carbonitrile] the IC50 was 4 nM. `COc1ccc(Sc2cc(-c3cnn(C4CCN(C)CC4)c3C)cn3ncc(C#N)c23)c(C#N)c1` [Example 379, 4-((2-cyano-4-methoxyphenyl)thio)-6-(5-methyl-1-(1-methylpiperidin-4-yl)-1H-pyrazol-4-yl)pyrazolo[1,5-a]pyridine-3-carbonitrile] showed an IC50 of 25 nM. With `Cc1c(-c2cc(Sc3ccc(F)cc3C#N)c3c(C#N)cnn3c2)cnn1C1CCN([C@@H](C)CO)CC1` [Example 380, (S)-4-((2-cyano-4-fluorophenyl)thio)-6-(1-(1-(1-hydroxypropan-2-yl)piperidin-4-yl)-5-methyl-1H-pyrazol-4-yl)pyrazolo[1,5-a]pyridine-3-carbonitrile] the IC50 was 1 nM. Work on `Cc1c(-c2cc(Sc3ccc(F)cc3C#N)c3c(C#N)cnn3c2)cnn1C1CCN([C@H](C)CO)CC1` [Example 381, (R)-4-((2-cyano-4-fluorophenyl)thio)-6-(1-(1-(1-hydroxypropan-2-yl)piperidin-4-yl)-5-methyl-1H-pyrazol-4-yl)pyrazolo[1,5-a]pyridine-3-carbonitrile] yielded an IC50 of 1 nM. `CC(=O)N1CCC(n2ncc(-c3cc(Sc4nccc(C)c4F)c4c(C#N)cnn4c3)c2C)CC1` [Example 382, 6-(1-(1-acetylpiperidin-4-yl)-5-methyl-1H-pyrazol-4-yl)-4-((3-fluoro-4-methylpyridin-2-yl)thio)pyrazolo[1,5-a]pyridine-3-carbonitrile] gave an IC50 of 14 nM. `CC(=O)N[C@H]1CC[C@@H](n2ncc(-c3cc(Sc4nc(N)ccc4F)c4c(C#N)cnn4c3)c2C)CC1` [Example 383, N-((1s,4s)-4-(4-(4-((6-amino-3-fluoropyridin-2-yl)thio)-3-cyanopyrazolo[1,5-a]pyridin-6-yl)-5-methyl-1H-pyrazol-1-yl)cyclohexyl)acetamide] gave an IC50 of 1 nM. `CC(=O)N[C@H]1CC[C@@H](n2ncc(-c3cc(Sc4nc(F)ccc4F)c4c(C#N)cnn4c3)c2C)CC1` [Example 384, N-((1s,4s)-4-(4-(3-cyano-4-((3,6-difluoropyridin-2-y)thio)pyrazolo[1,5-a]pyridin-6-yl)-5-methyl-1H-pyrazol-1-yl)cyclohexyl)acetamide] gave an IC50 of 1 nM. `Cc1c(-c2cc(Sc3cccc(Cl)c3C#N)c3c(C#N)cnn3c2)cnn1C1CCN(C)CC1` [Example 385, 4-((3-chloro-2-cyanophenyl)thio)-6-(5-methyl-1-(1-methylpiperidin-4-yl)-1H-pyrazol-4-yl)pyrazolo[1,5-a]pyridine-3-carbonitrile] gave an IC50 of 1.5 nM. For `COc1cc(Sc2cc(-c3cnn(C4CCN(C)CC4)c3C)cn3ncc(C#N)c23)c(C#N)cc1F` [Example 386, 4-((2-cyano-4-fluoro-5-methoxyphenyl)thio)-6-(5-methyl-1-(1-methylpiperidin-4-yl)-1H-pyrazol-4-yl)pyrazolo[1,5-a]pyridine-3-carbonitrile], the IC50 was 5 nM. With `Cc1c(-c2cc(Sc3ccc(F)cc3C#N)c3c(C#N)cnn3c2)cnn1[C@H]1CCN(C)C(C)(C)C1` [Example 387, (S)-4-((2-cyano-4-fluorophenyl)thio)-6-(5-methyl-1-(1,2,2-trimethylpiperidin-4-yl)-1H-pyrazol-4-yl)pyrazolo[1,5-a]pyridine-3-carbonitrile] the IC50 was 1 nM. `Cc1c(-c2cc(Sc3ccc(F)cc3C#N)c3c(C#N)cnn3c2)cnn1[C@@H]1CCN(C)C(C)(C)C1` [Example 388, (R)-4-((2-cyano-4-fluorophenyl)thio)-6-(5-methyl-1-(1,2,2-trimethylpiperidin-4-yl)-1H-pyrazol-4-yl)pyrazolo[1,5-a]pyridine-3-carbonitrile] showed an IC50 of 0.5 nM. With `Cc1c(-c2cc(Sc3ncc(F)cc3F)c3c(C#N)cnn3c2)cnn1[C@H]1CCN(C)C(C)(C)C1` [Example 389, (S)-4-((3,5-difluoropyridin-2-yl)thio)-6-(5-methyl-1-(1,2,2-trimethylpiperidin-4-yl)-1H-pyrazol-4-yl)pyrazolo[1,5-a]pyridine-3-carbonitrile] the IC50 was 5 nM. In the case of `Cc1c(-c2cc(Sc3ncc(F)cc3F)c3c(C#N)cnn3c2)cnn1[C@@H]1CCN(C)C(C)(C)C1` [Example 390, (R)-4-((3,5-difluoropyridin-2-yl)thio)-6-(5-methyl-1-(1,2,2-trimethylpiperidin-4-yl)-1H-pyrazol-4-yl)pyrazolo[1,5-a]pyridine-3-carbonitrile], the IC50 is reported as 42 nM. `Cc1c(-c2cc(Sc3ccc(F)cc3C#N)c3c(C#N)cnn3c2)cnn1[C@H]1CC[C@H](N(C)CCO)CC1` [Example 391, 4-((2-cyano-4-fluorophenyl)thio)-6-(1-((1r,4r)-4-((2-hydroxyethyl)(methyl)ami-no)cyclohexyl)-5-methyl-1H-pyrazol-4-yl)pyrazolo[1,5-a]pyridine-3-carbonitrile] gave an IC50 of 1 nM.
